Experimental data taken from patent US8217029B2, “Oxazolidinone antibiotics” (Actelion Pharmaceuticals Ltd, priority 2007, dated 2012).
Converted amounts (≈) assume the structure as drawn.

The molecules below were run on S aureus A798 (assay: Minimal inhibitory concentration (MIC), microdilution method in cation-adjusted Mueller-Hinton Broth following NCCLS guidelines). Conditions: pH of test medium 7.2-7.3.
Format: cell-based
Method in brief: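 MICs (mg/l) came from NCCLS-guided microdilution, using cation-adjusted Mueller-Hinton medium adjusted to pH 7.2-7.3.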

Row | MIC [µg/mL] | Compound
1 | ≤ 0.031 | COc1ccc2nccc(N3CC(N(C)C[C@@H]4CN(c5ccc(C)c(Br)c5)C(=O)O4)C3)c2n1 [Example 142, (R)-3-(3-Bromo-4-methyl-phenyl)-5-({[1-(6-methoxy-[1,5]naphthyridin-4-yl)-azetidin-3-yl]-methyl-amino}-methyl)-oxazolidin-2-one]
2 | ≤ 0.031 | COc1ccc2nccc(N3CC(NC[C@H]4CN(c5ccc6c(c5)NC(=O)CS6)C(=O)O4)C3)c2n1 [Example 57, 6-((S)-5-{[1-(6-Methoxy-[1,5]naphthyridin-4-yl)-azetidin-3-ylamino]-methyl}-2-oxo-oxazolidin-3-yl)-4H-benzo[1,4]thiazin-3-one]
3 | 0.25 (≈ 0.513 µM) | COc1ccc2nccc(N3CCN(C[C@@H]4CN(c5cccc(C(F)(F)F)c5)C(=O)O4)CC3)c2n1 [Example 16, (R)-5-[4-(6-Methoxy-[1,5]naphthyridin-4-yl)-piperazin-1-ylmethyl]-3-(3-trifluoromethyl-phenyl)-oxazolidin-2-one]
4 | 1 (≈ 2.3 µM) | COc1ccc2nccc(N3CCN(CC4CN(c5ccc(C)cn5)C(=O)O4)CC3)c2n1 (racemic) [Example 43, (RS)-5-[4-(6-Methoxy-[1,5]naphthyridin-4-yl)-piperazin-1-ylmethyl]-3-(5-methyl-pyridin-2-yl)-oxazolidin-2-one]
5 | 1 (≈ 1.92 µM) | COc1ccc2nccc(N3CC(NC(=O)C[C@@H]4CN(c5ccc6c(c5)NC(=O)CS6)C(=O)O4)C3)c2n1 [Example 115, N-[1-(6-Methoxy-[1,5]naphthyridin-4-yl)-azetidin-3-yl]-2-[(R)-2-oxo-3-(3-oxo-3,4-dihydro-2H-benzo[1,4]thiazin-6-yl)-oxazolidin-5-yl]-acetamide]
6 | ≤ 0.031 | COc1ccc2nccc(N3CC(N(C)C[C@@H]4CN(c5ccc(C)c(C(F)(F)F)c5)C(=O)O4)C3)c2n1 [Example 135, (R)-5-({[1-(6-Methoxy-[1,5]naphthyridin-4-yl)-azetidin-3-yl]-methyl-amino}-methyl)-3-(4-methyl-3-trifluoromethyl-phenyl)-oxazolidin-2-one]
7 | 0.25 (≈ 0.537 µM) | COc1ccc2nccc(N3CCCN(C[C@@H]4CN(c5ccc(C)c(F)c5)C(=O)O4)CC3)c2n1 [Example 108, (R)-3-(3-Fluoro-4-methyl-phenyl)-5-[4-(6-methoxy-[1,5]naphthyridin-4-yl)-[1,4]diazepan-1-ylmethyl]-oxazolidin-2-one]
8 | 2 | COc1ccc2nccc(N3C[C@H]4CCN(C[C@@H]5CN(c6ccc7c(c6)OCCO7)C(=O)O5)[C@H]4C3)c2n1 (mixture of isomers) [Example 94, (R)-3-(2,3-Dihydro-benzo[1,4]dioxin-6-yl)-5-{[(3aR*,6aR*)-5-(6-methoxy-[1,5]naphthyridin-4-yl)-hexahydro-pyrrolo[3,4-b]pyrrol-1-yl]-methyl}-oxazolidin-2-one]
9 | ≤ 0.031 | COc1ccc2nccc(N3CC[C@H](CNC[C@@H]4CN(c5ccc6c(c5)NC(=O)CO6)C(=O)O4)C3)c2n1 [Example 167, 6-[(R)-5-({[(R)-1-(6-Methoxy-[1,5]naphthyridin-4-yl)-pyrrolidin-3-ylmethyl]amino}-methyl)-2-oxo-oxazolidin-3-yl]-4H-benzo[1,4]oxazin-3-one]
10 | ≤ 0.031 | COc1ccc2nccc(N3CCCN(C[C@H]4CN(c5ccc6c(c5)NC(=O)CS6)C(=O)O4)CC3)c2n1 [Example 166, 6-{(S)-5-[4-(6-Methoxy-[1,5]naphthyridin-4-yl)-[1,4]diazepan-1-ylmethyl]-2-oxo-oxazolidin-3-yl}-4H-benzo[1,4]thiazin-3-one]
11 | ≤ 0.031 | COc1ccc2nccc(N3CC[C@@H](NC[C@@H]4CN(c5ccc6c(c5)NC(=O)CS6)C(=O)O4)C3)c2n1 [Example 71, 6-((R)-5-{[(R)-1-(6-Methoxy-[1,5]naphthyridin-4-yl)-pyrrolidin-3-ylamino]-methyl}-2-oxo-oxazolidin-3-yl)-4H-benzo[1,4]thiazin-3-one]
12 | 0.125 (≈ 0.286 µM) | COc1ccc2nccc(N3CCN(C[C@H]4CN(c5cccc(F)c5)C(=O)O4)CC3)c2n1 [Example 40, (S)-3-(3-Fluoro-phenyl)-5-[4-(6-methoxy-[1,5]naphthyridin-4-yl)-piperazin-1-ylmethyl]-oxazolidin-2-one]

More lines, now with the values behind:

Row | Compound | MIC [µg/mL]
13 | COc1ccc2nccc(N3C[C@H](NC[C@@H]4CN(c5ccc6c(c5)NC(=O)CO6)C(=O)O4)[C@@H](OC)C3)c2n1 [Example 181, 6-((R)-5-{[(3S,4S)-4-Methoxy-1-(6-methoxy-[1,5]naphthyridin-4-yl)-pyrrolidin-3-ylamino]-methyl}-2-oxo-oxazolidin-3-yl)-4H-benzo[1,4]oxazin-3-one] | 0.25 (≈ 0.48 µM)
14 | COc1ccc2ncc(F)c(N3CCCN(C[C@@H]4CN(c5ccc6c(c5)NC(=O)CS6)C(=O)O4)CC3)c2n1 [Example 104, 6-{(R)-5-[4-(3-Fluoro-6-methoxy-[1,5]naphthyridin-4-yl)-[1,4]diazepan-1-ylmethyl]-2-oxo-oxazolidin-3-yl}-4H-benzo[1,4]thiazin-3-one] | ≤ 0.031
15 | COc1ccc2nccc(N3CC(N(C)C[C@@H]4CN(c5cccc(N(C)C)c5)C(=O)O4)C3)c2n1 [Example 140, (R)-3-(3-Dimethylamino-phenyl)-5-({[1-(6-methoxy-[1,5]naphthyridin-4-yl)-azetidin-3-yl]-methyl-amino}-methyl)-oxazolidin-2-one] | 0.25 (≈ 0.54 µM)
16 | COc1cccc(N2C[C@@H](CN3CCN(c4ccnc5ccc(OC)nc45)CC3)OC2=O)c1 [Example 24, (R)-5-[4-(6-Methoxy-[1,5]naphthyridin-4-yl)-piperazin-1-ylmethyl]-3-(3-methoxy-phenyl)-oxazolidin-2-one] | 0.25 (≈ 0.556 µM)
17 | COc1ccc2nccc(N3CC(NC[C@@H]4CN(c5ccc6c(c5)NC(=O)CS6)C(=O)O4)C3)c2n1 [Example 53, 6-((R)-5-{[1-(6-Methoxy-[1,5]naphthyridin-4-yl)-azetidin-3-ylamino]-methyl}-2-oxo-oxazolidin-3-yl)-4H-benzo[1,4]thiazin-3-one] | ≤ 0.031
18 | COc1ccc2nccc(N3CCN(C[C@@H]4CN(c5ccc(C)c(C)c5)C(=O)O4)CC3)c2n1 [Example 27, (R)-3-(3,4-Dimethyl-phenyl)-5-[4-(6-methoxy-[1,5]naphthyridin-4-yl)-piperazin-1-ylmethyl]-oxazolidin-2-one] | ≤ 0.031
19 | COc1ccc2nccc(C3(O)CCN(C[C@@H]4CN(c5ccc6c(c5)NC(=O)CS6)C(=O)O4)CC3)c2c1 [Example 125, 6-{(R)-5-[4-Hydroxy-4-(6-methoxy-quinolin-4-yl)-piperidin-1-ylmethyl]-2-oxo-oxazolidin-3-yl}-4H-benzo[1,4]thiazin-3-one] | ≤ 0.031
20 | COc1ccc2nccc(N3CCC(NC[C@@H]4CN(c5ccc(OC(F)F)cc5)C(=O)O4)CC3)c2n1 [Example 185, (R)-3-(4-Difluoromethoxy-phenyl)-5-{[1-(6-methoxy-[1,5]naphthyridin-4-yl)-piperidin-4-ylamino]-methyl}-oxazolidin-2-one] | 0.5 (≈ 1 µM)
